Here are results for five compounds from US20100130618A1, “TREATMENT OF HUMAN DISEASE CONDITIONS AND DISORDERS USING VITAMIN K ANALOGUES AND DERIVATIVES” (priority 2007, published 2010).

Data set [1] relates to Guinea Pig ileum. Briefly: Guinea pig ileum, acetylcholine induced smooth muscle contraction. Particulars: for inhibition of acetylcholine induced smooth muscle contraction: acetylcholine 50 μg/ml; for smooth muscle relaxant activity (inference): overall inference from guinea pig ileum data. The procedure:
(§1) Muscle relaxant activity was evaluated of pure test samples PK and MK-4 with Frog Rectus Abdominus Muscle and Guinea Pig ileum.
(§2) To evaluate the effect of test samples on smooth muscle contraction induced by (a) Acetylcholine (Neurotransmitter) which acts on […] receptors, (b) Histamine that causes a transient rise of cytosolic calcium, which is mediated by H1 receptor coupling that triggers release of internal calcium stores and (c) Barium that enters the cell through a voltage dependent calcium channel and, either directly or indirectly, interacts with calmodulin.
(§3) Test Samples were PK-400 μg/ml and MK-4-400 μg/ml

Data set [2] relates to Guinea Pig ileum. Briefly: Guinea pig ileum, barium chloride induced smooth muscle contraction. Particulars: dose 640 μg (1.6 ml); barium chloride 1%. The protocol:
as §1, §2, §3

Data set [3] concerns Guinea Pig ileum. Kind of data set: Guinea pig ileum, histamine induced smooth muscle contraction. Particulars: dose 640 μg (1.6 ml); histamine 25 μg/ml. The protocol: as §1, §2, §3
Data set [4] concerns Frog Rectus Abdominus Muscle. Briefly: Frog rectus abdominus muscle preparation, acetylcholine induced skeletal muscle contraction. Particulars: for antagonism of contraction induced by acetylcholine (40 μg): dose of 400 μg; for activity on skeletal muscle contraction (inference): overall inference. The procedure: as §1
B) Frog Rectus Abdominus Muscle Preparation
To evaluate the effect of test samples on skeletal muscle contraction induced by Acetylcholine (Neurotransmitter).
Acetylcholine: 100 mcg/ml
as §3

For a further data set, the system named is Frog Heart. Briefly: Frog heart, adrenaline-induced contractions. Particulars: for inhibition of adrenaline-induced contractions: 0.1 ml (40 μg), 0.2 ml (80 μg) and 0.4 ml (160 μg), adrenaline 40 μg/ml; for beta blocker activity (inference): overall inference from adrenalic response. The protocol: Frog Heart Adrenaline: 40 μg/ml
Data set [5] is described as follows: Clinical case studies of oral MK-7 (Examples 1-10). In kind it is in vivo, humans. An excerpt: Examples 1-10 enumerate clinical case studies data and Examples 11 and 12 provide in vitro experiments.
The conditions of data set [6]: cited from earlier work.
For data set [7] the following is noted: cited from earlier work. This is another data set of the same source.
For data set [8] the following is noted: cited from earlier work. This is another data set of the same source.
The conditions of data set [9]: 50 gms natto per day with 865, 1295 or 1730 μg MK-7 per 100 g; cited from earlier work.
Where [10] appears, read: Example 02: MK-7 p.o. every day.
Setting [11] is: Example 05: person, 100 μg per day.

Read-outs that look alike come from different tables or passages of the source.

Regarding `CC(C)=CCC/C(C)=C/CC/C(C)=C/CC/C(C)=C/CC1=C(C)C(=O)c2ccccc2C1=O` [MK-4, menatetrenone], in the data set with Guinea Pig ileum [1] (dose 80 μg (0.2 ml)), the “inhibition of acetylcholine induced smooth muscle contraction” value stood at 21.62%. The “inhibition of acetylcholine induced smooth muscle contraction” value in the data set with Guinea Pig ileum [1] (dose 160 μg (0.4 ml)) is on record as 40%. Moreover, the “inhibition of acetylcholine induced smooth muscle contraction” value with Guinea Pig ileum [1] (dose 320 μg (0.8 ml)) was found to be 81.81%. Moreover, in the data set with Guinea Pig ileum [1], the “smooth muscle relaxant activity (inference)” value is recorded as “demonstrate a smooth muscle relaxant activity”. In addition, in the data set with Guinea Pig ileum [2], the “inhibition of barium chloride induces smooth muscle contraction” value was 29%. Moreover, the “inhibition of histamine induced smooth muscle contraction” value in the data set on Guinea Pig ileum [3] came to 29.4%. For the same compound, in data set [4], the “antagonism of contraction induced by acetylcholine (40 μg)” value is on record as “not antagonized” and the “activity on skeletal muscle contraction (inference)” value is on record as “failed to exhibit activity”. In addition, in the data set on Frog Heart, the “inhibition of adrenaline-induced contractions” value was “failed to inhibit” and the “beta blocker activity (inference)” value is given as “do not exhibit beta blocker activity”.
Regarding `CC(C)=CCC/C(C)=C/CC/C(C)=C/CC/C(C)=C/CC/C(C)=C/CC/C(C)=C/CC/C(C)=C/CC1=C(C)C(=O)c2ccccc2C1=O` [MK-7], the “tingling, numbness and burning of feet” value in data set [5] (Example 01: person, type 2 diabetes, MK-7 100 μg per day for 2 months) was “complete relief”. In addition, the “skin hyper pigmentation of nape of neck” value in data set [5] (Example 01: person, type 2 diabetes, MK-7 for one and a half years) was “almost subsided”. Also, in [5] (Example 02: MK-7 added to schedule), the “energy levels and fatigue” value was “higher energy levels and less fatigue”. Besides, in data set [5] (setting [10]), the paper-money skin appearance result is recorded as “much reduced”; the tingling and numbness result is given as “reduced markedly”. In data set [5] (Example 02: MK-7 p.o. every day, over the next four months (before: 2 to 3 times in a week)), the “frequency of mild cramps” value was “one or two in a month”. The “severity and frequency of muscle cramps” value in [5] (Example 02: person, type 2 diabetes, hypertension, MK-7 p.o. every day, over the next two weeks) is on record as “steadily decreased”. For the same compound, in data set [5] (Example 03: person, 100 μg one tablet per day, after six months), the “cramps during night and day” value is “disappeared”. For the same compound, the “rough skin on both heels” value in data set [5] (Example 04: person, daily dose 200 μg, within 10-15 days) was “completely lost roughness and became smooth”. For the same compound, in data set [5] (setting [11]), the scalp hair-loss entry is reported as “stopped distinctly” and the skin of feet entry is recorded as “smoothness of skin of their feet, diminution of cracks in the feet”. In addition, in data set [5] (Example 05: person, p.o. 100 μg per day), the “hyper pigmentation and paper-money skin of lower limbs” value is listed as “gradually reduced to a bare minimum”. Also, in data set [5] (Example 06: person, 100 μg two times a day), the “frequency, duration and severity of leg cramps” value is given as “decreased”. For the same compound, the skin lightening entry in data set [5] (Example 07: 100 μg twice a day, another 3 months (6 months total)) is on record as “considerable lightening of the skin”. The “hyper pigmentation of face, arms and neck” value in data set [5] (Example 07: person, 100 μg twice a day, after 2 to 3 months) is “decreased”. The nail growth result in data set [5] (Example 08: 200 μg per day, over 2 months) is “grows faster”. The “severity of cramps after marathon” value in [5] (Example 08: athlete, 200 μg per day, within 2 months) is recorded as “lowered”. For the same compound, the “residual neuropathy symptoms (tingling, numbness, paresthesiae, burning sensation)” value in data set [5] (Example 09: diabetic, 100 μg per day, within 15 days) is recorded as “disappears completely”. For the same compound, the “frequency of restless legs syndrome” value in data set [5] (Example 10: 200 μg per day for 1 year (before: every night)) is “once or twice a month”. Besides, the restless legs syndrome entry in data set [5] (Example 10: person, 200 μg per day, within 2 weeks) is given as “reduced considerably”. Moreover, in data set [6] (at 72 hrs), the “concentration relative to the peak value concentration (Cmax) achieved by PK” value is recorded as > 50% and the detectability in circulation result is “remains detectable”. Besides, in data set [6] (in vivo), the half life is 50 h. For the same compound, in data set [7] (dietary intake 24 μg per day mid tertile vs 12 μg per day lower tertile), the “reduction (mid tertile)” value is 25%. In [7] (dietary intake 45 μg per day upper tertile vs 12 μg per day lower tertile, 10 years follow-up), the “reduction in CHD mortality and aortic calcification” value is reported as 50%. The “reduction in all cause mortality” value in data set [7] (dietary intake 45 μg per day upper tertile vs 12 μg per day lower tertile) is reported as 25%. Further, the “serum MK-7 concentration (mean±SD)” value in data set [8] (British women) was 0.37 ± 0.20 ng/mL. In data set [8] (Japanese women in Hiroshima), the “serum MK-7 concentration (mean±SD)” value was 1.22 ± 1.85 ng/mL. Also, the “serum MK-7 concentration (mean±SD)” value in data set [8] (Japanese women in Tokyo) is 5.26 ± 6.13 ng/mL. The “serum MK-7 concentration and γ-carboxylated osteocalcin concentration” value in [9] is reported as “elevated parallel to the administered level”.
`CC1=C(C/C=C(\C)CCC[C@H](C)CCC[C@H](C)CCCC(C)C)C(=O)c2ccccc2C1=O` [PK, phylloquinone]: the “inhibition of acetylcholine induced smooth muscle contraction” value in the data set on Guinea Pig ileum [1] (dose 320 μg (0.8 ml)) is on record as 38.46%; in the data set on Guinea Pig ileum [1] (dose 640 μg (1.6 ml)), 46.15%. In the data set on Guinea Pig ileum [1], the “smooth muscle relaxant activity (inference)” value is “demonstrate a smooth muscle relaxant activity”. Besides, the “inhibition of barium chloride induces smooth muscle contraction” value with Guinea Pig ileum [2] is 31%. The “inhibition of histamine induced smooth muscle contraction” value in the data set on Guinea Pig ileum [3] is 37.16%. The “antagonism of contraction induced by acetylcholine (40 μg)” value in data set [4] was “not antagonized”. Also, the “activity on skeletal muscle contraction (inference)” value in data set [4] was “failed to exhibit activity”. In addition, in the data set on Frog Heart, the “inhibition of adrenaline-induced contractions” value is on record as “failed to inhibit”. Also, the “beta blocker activity (inference)” value in the data set on Frog Heart is reported as “do not exhibit beta blocker activity”. Besides, in data set [6] (in vivo), the elimination half life is 1.5 h. The absorption from vegetables in data set [6] (taken together with 30 g fat) is listed as 10-15%; in data set [6] (without concomitant fat intake), 5-10%.
Consider `CC(C)NCC(O)COc1cccc2ccccc12` (stereo not drawn) [Propanolol], for which, in the data set with Frog Heart (reference competitive inhibitor of adrenaline, FIG. 6), the “inhibition of adrenaline response” value is “found to inhibit adrenaline response”.
In the case of vitamin B12, in data set [5] (Example 02: vitamin B12 deficiency on Metformin, injections 500 μg over 2 weeks, MK-7 continued), the tingling and numbness entry is recorded as “significant relief”.
